Laboratory results: patent US6727401B1, “Pressure sensitive adhesive matrix patch for the treatment of onychomycosis” (Watson Pharmaceuticals, Inc., priority 1998, dated 2004)

Columns and labels:
[1] = In vitro human cadaver skin flux study, modified Franz cells; type: in vitro ADME
Description: In vitro human cadaver skin flux studies were conducted using modified Franz non-jacketed permeation cells. The temperature of the skin surface was maintained at 32° C. by placing the cells in a circulating water bath positioned over a stirring module. The epidermal membrane was separated from the dermatomed human cadaver skin by the heat-separation method of Kligman and Christopher (Arch. Dermatol. 88:702 (1963)) involving the exposure of the full thickness skin to 60° C. heat for 60 seconds, after which time the stratum corneum and the epidermis (epidermal membrane) were gently peeled off the dermis.
For a matrix skin flux study, the heat separated human epidermal membrane was cut into rectangular strips. The matrix was cut into 0.71 cm^2 circular discs. […] At predetermined sampling intervals, the entire contents of the receiver compartment were collected for drug quantitation and the receiver compartment was filled with fresh receiver solution, taking care to eliminate any air bubbles at the skin/solution interface.
For the topical gel study, included for illustration purposes, a thin film of gel approximately 10 μl/cm^2, was applied to the stratum-corneum surface of a hydrated piece of human cadaver skin. […] At predetermined sampling intervals, the entire contents of the receiver compartment were collected for drug quantitation. […]

[2] = Amount of drug retained in the nail after matrix patch application; type: in vitro ADME; conditions: human, 48 hours
Description: (§1) In vitro human cadaver nail flux studies were conducted using modified Franz non-jacketed permeation cells. The temperature of the nail surface was maintained at 32° C. by placing the cells in a circulating water bath positioned over a stirring module. Human finger nail or toe nail was stored under frozen conditions in 0.02% (w/v) sodium azide solution. Nails that were greater than 1 cm^2 in area were used for the flux studies. Nails with dorsal side facing the donor compartment were sandwiched between two layers of a closed cell polyethylene foam film. Annular ring of 2.38 cm outer diameter and 0.95 cm inner diameter was cut from the backing film. The area of the donut hole (0.97 cm^2) is large enough to provide complete contact with the receiver media. The purpose of the foam backing film was to prevent any leakage of receiver medium from the cell assembly. The nails were allowed to hydrate at 32° C. overnight with 0.02% (w/v) sodium azide solution in the receiver compartment. The following morning, 0.71 cm^2 circular matrix patches were laminated onto the dorsal side of the nail. Each nail matrix sandwich was then loaded between the donor and receiver compartments of a diffusion cell, with the ventral side of nail facing the receiver compartment, and clamped in place.
The remaining portion of nail was also dried, weighed, extracted in dimethyl sulfoxide and analyzed for drug content.

[3] = In vitro human cadaver nail flux study, modified Franz cells, matrix patch; type: in vitro ADME
Description: The cumulative amount of drug permeated per unit area at any time t(Qt, μg/cm^2) was determined as follows: [formula]
where Cn is the concentration (μg/ml) of the drug in the receiver sample for the corresponding sample time, V is the volume of fluid in the receiver chamber (˜6.3 cm^3), and A is the diffusion area of the cell (0.64 cm^2).
as §1

[4] = Amount of drug retained in the skin after matrix patch application; conditions: patch at 24 hours versus day 1 after oral administration
[5] = long term, high dose systemic therapy, cited from earlier work

Clc1ccccc1C(c1ccccc1)(c1ccccc1)n1ccnc1 [clotrimazole]
skin flux without an enhancer [1]: below the detection limit | amount of drug retained in the nail per unit dry weight of nail [2]: greater than 500 μg/g | permeation across the nail [3]: no permeation

OC(Cn1cncn1)(Cn1cncn1)c1ccc(F)cc1F [fluconazole]
times higher amount of fluconazole in the skin compared to oral administration [4]: 500-600 times | times higher amount of drug in the nail after patch application compared to reported oral administration [2]: 1000-2000 times | permeation across the nail [3]: no permeation

CC(=O)N1CCN(c2ccc(OCC3COC(Cn4ccnc4)(c4ccc(Cl)cc4Cl)O3)cc2)CC1 (centres unmarked) [ketoconazole]
effect of the presence of an enhancer on skin flux ([1]; enhancer lauramide-DEA, acrylic pressure sensitive adhesive): doubles the flux | reported liver toxicity [5]: liver toxicity effects | reported effect on testosterone levels in blood ([5]; due to adverse effects on the testes): reduces testosterone levels in blood

CN(C/C=C/C#CC(C)(C)C)Cc1cccc2ccccc12 [terbinafine]
times higher amount of drug in the nail after patch application compared to reported oral administration [2]: 100-1000 times | permeation across the nail [3]: no permeation
